The record followed here is patent US6486156B1, “Chemical compounds” (Astrazeneca AB, priority 1998, dated 2002).

A word on the IC50: it is the concentration needed to halve the response being measured.

For this assay, the target named is T1, Farnesyl protein transferase (FPT) (Homo sapiens, UniProt P49354+P49356).
T1 construct: partially purified from human placenta by ammonium sulphate fractionation; from tissue; host or cells: human placenta
Briefly: In-vitro assay (test (i)): inhibition of farnesylation of Ki-ras with radiolabelled farnesyl pyrophosphate. The assay is classed as biochemical. As to conditions: FPT partially purified from human placenta; substrate Kras (CVIM C-terminal sequence). As for the experimental part: The following stock solutions were used and the assays were conducted in 96 well plates: TRIS Buffer (500 mM TRIS, 5 mM MgCl2.6H2O, pH=8.0); Farnesyl pyrophosphate (6.4 mg/ml); Aprotinin (1.9 mg/ml); Ki-ras (0.5 mg/ml, stored at −80° C.); Acid ethanol (850 ml absolute ethanol+150 ml concentrated HCl).
Farnesyl protein transferase (FPT) was partially purified from human placenta by ammonium sulphate fractionation followed by a single Q-Sepharose™ (Pharmacia, Inc) anion exchange chromatography essentially as described by Ray and Lopez-Belmonte (Ray K P and Lopez-Belmonte J (1992) Biochemical Society Transactions 20 494-497). The substrate for FPT was Kras (CVIM C-terminal sequence). The cDNA for oncogenic val 12 variant of human c-Ki-ras-2 4B was obtained from the plasmid pSW11-1 (ATCC). This was then subcloned into the polylinker of a suitable expression vector e.g. pIC147. The Kras was obtained after expression in the E. coli strain, BL21. […]
Assays were performed in 96 well plates as follows: 10 μl of test compound solution was added to each well. […] Precipitated protein was then collected onto glass fibre filter mats (B) using a Tomtec™ cell harvester and tritiated label was measured in a Wallac™ 1204 Betaplate scintillation counter. […]

Take `CSCC[C@H](NC(=O)c1ccc(/C=C/Cn2ccnc2)cc1-c1ccc(Cl)cc1Cl)C(=O)O` [Example 29, (2S)-2-{4-[(E)-3-(Imidazol-1-yl)prop-1-en-1-yl]-2-(2,4-dichlorophenyl)benzamido}-4-methylsulfanylbutyric Acid]: the concentration for half-maximal inhibition (IC50) was roughly 0.4 nM.
